Here are results for 17 compounds from patent publication US7691898B2 (Kotobuki Pharmaceutical Co., Ltd., priority 2004, dated 2010).

The structures appear in SMILES notation.

Series [1] deals with NaH2PO4 loaded mice. The series is described as follows: Inhibitory effect on the elevation of serum phosphate levels in NaH2PO4 loaded mice. As to conditions: Mus musculus; male ddY mice, oral, compound 0.5 hours before oral NaH2PO4 load; serum phosphate AUC up to 4 hours. Type of series: in vivo. On the procedure: EVALUATION OF INHIBITORY EFFECT ON THE ELEVATION OF SERUM PHOSPHATE LEVELS 1N NaH2PO4 LOADED MICE Male ddY mice, aged 6-7 weeks, were fasted overnight and used as 6 mice/group. The compounds suspended in 0.5% methylcellulose were administered orally at a dose of 100 or 300 mg/10 mL/kg. After 0.5 hours, 50 mg/300 uL/mouse of NaH2PO4 solution was administered orally. Blood samples were taken from retro-orbital venousplexus of the mice before administration of the compounds and 0.5, 1, 2 and 4 hours after the NaH2PO4 administration, and serum phosphate concentration was measured using phospha C-test Wako kit (Wako pure chemicals Co. Ctd.). The area under the serum phosphate concentration-time curve (AUC) up to 4 hours after administration of NaH2PO4 was calculated and the inhibitory effect of serum phosphate levels was evaluated.

For series [2], the system named is Human alkaline phosphatase. The series is described as follows: Stability test against human alkaline phosphatase. Type of series: in vitro ADME. As to conditions: for amount of compound (HPLC) after incubation with human alkaline phosphatase: 2 U/mL enzyme, 0.1 M carbonate buffer, 37° C. Here is the method:
Compound 42 or 2′-PP was dissolved in dimethyl sulfoxide and the concentration was adjusted to 1×10^−2 M. […] The amounts of each compound were measured by the HPLC method (HPLC condition, column: Inertsil ODS-2, eluent: 10 mM phosphate buffer/CH3CN=8/2, wavelength: 230 nm, flow rate: 1 mL/min).

For the compound `CCOc1ccc(Cc2cc(CP(=O)(O)O)ccc2O)cc1` [Compound 20, [3-(4-Ethoxybenzyl)-4-hydroxybenzyl]phosphonic acid], the ED30 in series [1] stood at 244 mg/kg.

Regarding `CCOc1ccc(Cc2cc(C(=O)P(=O)(O)O)ccc2O)cc1` [Compound 38, [3-(4-Ethoxybenzyl)-4-hydroxybenzoyl]phosphonic acid], the ED30 in series [1] is 44.5 mg/kg.

`CSc1ccc(Cc2cc(C(=O)P(=O)(O)O)ccc2O)cc1` [Compound 42, [4-Hydroxy-3-(4-methylthiobenzyl)benzoyl]phosphonic acid] gave an ED30 in series [1] of 33.3 mg/kg. Also, the amount of compound (HPLC) after incubation with human alkaline phosphatase in series [2] (Time 0 hr) was 100%; in series [2] (Time 0.25 hr), 96.3%; in series [2] (Time 0.5 hr) it was 96%; in series [2] (Time 1 hr) it was 95.8%; in series [2] (Time 2 hr) it was 95.5%. The “stability against human alkaline phosphatase (in words)” value in series [2] (conclusion from Table 1) is “stable”.

Compound `CCCOc1ccc(Cc2cc(C(=O)P(=O)(O)O)ccc2O)cc1` [Compound 45, [4-Hydroxy-3-(4-n-propoxybenzyl)benzoyl]phosphonic acid] yielded an ED30 in series [1] of 20.1 mg/kg.

`CC(C)Oc1ccc(Cc2cc(C(=O)P(=O)(O)O)ccc2O)cc1` [Compound 46, [4-Hydroxy-3-(4-i-propoxybenzyl)benzoyl]phosphonic acid] displayed an ED30 in series [1] of 16.3 mg/kg.

The compound `O=C(c1ccc(O)c(Cc2ccc(Oc3ccccc3)cc2)c1)P(=O)(O)O` [Compound 49, [4-Hydroxy-3-(4-phenoxybenzyl)benzoyl]phosphonic acid] returned an ED30 in series [1] of 17.8 mg/kg.

`O=C(c1ccc(O)c(Cc2cc3ccccc3s2)c1)P(=O)(O)O` [Compound 54, [3-(Benzo[b]thiophen-2-ylmethyl)-4-hydroxybenzoyl]phosphonic acid] displayed an ED30 in series [1] of 13.9 mg/kg.

Turning to `CCOc1ccc(Cc2cc(C(=O)P(=O)(O)O)ccc2OCCO)cc1` [Compound 57, [3-(4-Ethoxybenzyl)-4-(2-hydroxyethoxy)benzoyl]phosphonic acid], the ED30 in series [1] was 30.9 mg/kg.

Take `CSc1ccc(Cc2cc(C(=O)P(=O)(O)O)ccc2OCCO)cc1` [Compound 60, [4-(2-Hydroxyethoxy)-3-(4-methylthiobenzyl)benzoyl]phosphonic acid]: in series [1], the ED30 worked out at 12.1 mg/kg.

Regarding `CCOc1ccc(Cc2ccc(P(=O)(O)O)s2)cc1` [Compound 64, 5-(4-Ethoxybenzyl)-2-thiophenephosphonic acid], the ED30 in series [1] was 165 mg/kg.

Take `CCOc1ccc(Cc2ccc(CP(=O)(O)O)s2)cc1` [Compound 65, [5-(4-Ethoxybenzyl)thiophen-2-ylmethyl]phosphonic acid]: the ED30 in series [1] was found to be 256 mg/kg.

The compound `CCOc1ccc(Cc2ccc(C(=O)P(=O)(O)O)s2)cc1` [Compound 70, [5-(4-Ethoxybenzyl)thiophen-2-carbonyl]phosphonic acid] returned an ED30 in series [1] of 20.3 mg/kg.

Compound `CSc1ccc(Cc2ccc(C(=O)P(=O)(O)O)s2)cc1` [Compound 73, [5-(4-Methylthiobenzyl)thiophen-2-carbonyl]phosphonic acid] showed an ED30 in series [1] of 4.5 mg/kg.

Turning to `O=C(c1ccc(Cc2ccc(Cl)cc2)s1)P(=O)(O)O` [Compound 75, [5-(4-Chlorobenzyl)thiophen-2-carbonyl]phosphonic acid], the ED30 in series [1] was 25.6 mg/kg.

Compound `CCSc1ccc(Cc2ccc(C(=O)P(=O)(O)O)s2)cc1` [Compound 76, [5-(4-Ethylthiobenzyl)thiophen-2-carbonyl]phosphonic acid] yielded an ED30 in series [1] of 2 mg/kg.

On to `CCCCCCCCCCCCCOc1ccc(Cc2ccc(C(=O)P(=O)(O)O)s2)cc1` [Compound 83, [5-(4-n-Tridecanyloxybenzyl)thiophen-2-carbonyl]phosphonic acid], for which the ED30 in series [1] came to 10.7 mg/kg.

For the compound `O=C(CCc1ccc(O)cc1)c1c(O)cc(O)cc1OP(=O)(O)O` [reference compound], the amount of compound (HPLC) after incubation with human alkaline phosphatase stood at 100% in series [2] (Time 0 hr); 31.4% in series [2] (Time 0.25 hr); 21.4% in series [2] (Time 0.5 hr); 16.3% in series [2] (Time 1 hr); 1.2% in series [2] (Time 2 hr).
